Measurements as given in ChEMBL document CHEMBL1201862, “PubChem BioAssay data set” (2004).
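Grown in 96-well plates, cells were treated for 48 hours with each compound at five concentrations. Insufficient inhibition: endpoint recorded as highest concentration tested. GI50 is the concentration that inhibits growth by half.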 Active and inactive are the calls of the source. No stated cut-off is given here; in the data, active = GI50 up to about 1.1 µM and inactive = higher.

Key:
Assay in all cases: NCI tumour cell line growth inhibition, 48 h
[1] = test system: SK-OV-3
[2] = test system: SF-295
[3] = test system: NCI-H460
[4] = test system: MOLT-4
[5] = test system: NCI-H226
[6] = test system: UACC-257
[7] = test system: MCF7
[8] = test system: SF-268
[9] = test system: NCI-H522
[10] = test system: 786-0
[11] = test system: SR
[12] = test system: HOP-62
[13] = test system: DU-145
[14] = test system: SK-MEL-28
[15] = test system: MDA-MB-231
[16] = test system: T47D
[17] = test system: SF-539
[18] = test system: Malme-3M

Measured: GI50

CCOC(=O)NNC1(SC)NC(=O)c2c(cc(Cl)oc2=O)O1 (configuration not stated)
inactive: [1] 8.02 µM | [2] 12.4 µM | [3] 8 µM | [4] 2.67 µM | [5] 20.9 µM | [6] 7.26 µM | [7] 1.91 µM | [8] 3.49 µM | [9] 2.12 µM | [10] 1.92 µM | [11] 2.36 µM | [12] 11.3 µM | [13] 4.17 µM | [14] 3.08 µM | [15] 8.41 µM | [16] 6.85 µM | [17] 1.79 µM

C=C(CCOC)CCC1CCCCC(=C)C1=O (configuration not stated)
inactive: [1] > 100 µM | [2] > 100 µM | [3] > 100 µM | [4] > 100 µM | [5] > 100 µM | [7] > 100 µM | [8] > 100 µM | [9] > 100 µM | [10] > 100 µM | [11] > 100 µM | [18] > 100 µM | [12] > 100 µM | [13] > 100 µM | [14] > 100 µM | [15] > 100 µM | [16] > 100 µM

COc1ccc(CC2c3cc(OC)c(OC)c(OC)c3CC[N+]2(C)C)cc1Oc1ccc(CC2c3cc4c(c(OC)c3CCN2C)OCO4)cc1 (configuration not stated)
inactive: [1] > 100 µM | [2] > 100 µM | [3] 92 µM | [4] > 100 µM | [5] > 100 µM | [6] > 100 µM | [7] > 100 µM | [8] > 100 µM | [9] 97.7 µM | [10] > 100 µM | [11] 52.1 µM | [18] > 100 µM | [13] > 100 µM | [14] > 100 µM | [15] > 100 µM | [16] > 100 µM | [17] > 100 µM

[N-]=[N+]=NC1=C(c2ccccn2)C(=O)c2cccc3cccc1c23
inactive: [1] 36.7 µM | [2] 42.5 µM | [3] 12 µM | [4] 1.77 µM | [6] 32.8 µM | [7] 23.6 µM | [8] 12 µM | [10] 25.2 µM | [11] 27.7 µM | [18] 49.2 µM | [12] 19.7 µM | [13] 39.7 µM | [14] > 100 µM | [15] 69.3 µM | [16] > 100 µM | [17] 32.8 µM

CN1C(=O)C(C(N)=O)C2CC1(C)Oc1ccccc12 (configuration not stated)
inactive: [1] > 100 µM | [3] > 100 µM | [4] > 100 µM | [5] > 100 µM | [6] > 100 µM | [7] > 100 µM | [8] > 100 µM | [9] > 100 µM | [10] > 100 µM | [11] > 100 µM | [18] > 100 µM | [12] > 100 µM | [13] > 100 µM | [14] > 100 µM | [15] > 100 µM | [16] > 100 µM

O=C(NCc1ccccc1)c1cc2ccccc2o/c1=N\c1cccc(C(F)(F)F)c1
inactive: [1] > 100 µM | [2] 51.3 µM | [3] 41.2 µM | [4] 23.4 µM | [5] 29.8 µM | [6] 29.5 µM | [7] 42.5 µM | [8] > 100 µM | [9] 39 µM | [10] 29.8 µM | [11] 21.1 µM | [18] 48.1 µM | [12] 85.3 µM | [13] > 100 µM | [14] > 100 µM | [15] 75.7 µM | [16] 28.1 µM

O=C(OCc1ccccc1)N1c2cc([N+](=O)[O-])ccc2C(=O)N2CCC[C@H]2C1O (some centres not stated)
inactive: [1] > 100 µM | [2] > 100 µM | [3] > 100 µM | [4] > 100 µM | [5] > 100 µM | [6] > 100 µM | [7] > 100 µM | [8] > 100 µM | [9] > 100 µM | [10] > 100 µM | [11] > 100 µM | [12] > 100 µM | [13] > 100 µM | [14] > 100 µM | [15] > 100 µM | [16] > 100 µM | [17] > 100 µM

Oc1ccc(C[C@@H]2CN[C@H](Cc3ccc(O)c(Br)c3)CN2)cc1
inactive: [1] > 100 µM | [2] > 100 µM | [4] > 100 µM | [5] > 100 µM | [6] > 100 µM | [7] > 100 µM | [8] > 100 µM | [9] > 100 µM | [10] > 100 µM | [11] > 100 µM | [12] > 100 µM | [13] > 100 µM | [14] > 100 µM | [15] > 100 µM | [16] > 100 µM | [17] > 100 µM
